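48-hour exposure; five concentrations; linearly interpolated endpoints. GI50: concentration for 50% inhibition of growth. TGI: total growth inhibition.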
What was measured:
Experiment in all cases: NCI anticancer screen, dose series, 48 h
786-0 renal = system: 786-0 renal
COLO 205 colon = system: COLO 205 colon
HOP-62 NSCLC = system: HOP-62 NSCLC
K-562 leukemia = system: K-562 leukemia
NCI-H226 lung = system: NCI-H226 lung
NCI-H522 lung = system: NCI-H522 lung
OVCAR-3 ovarian = system: OVCAR-3 ovarian
OVCAR-5 ovarian = system: OVCAR-5 ovarian
SW-620 colon = system: SW-620 colon
U251 CNS = system: U251 CNS

Row | Compound | TGI (786-0 renal) | TGI (COLO 205 colon) | TGI (HOP-62 NSCLC) | TGI (K-562 leukemia) | TGI (NCI-H226 lung) | TGI (NCI-H522 lung) | TGI (OVCAR-3 ovarian) | TGI (OVCAR-5 ovarian) | TGI (SW-620 colon) | TGI (U251 CNS) | GI50 (HOP-62 NSCLC) | GI50 (NCI-H226 lung)
1 | CCCCCCc1cc2cc(C(=O)NCc3ccccc3)c(=N)oc2cc1O | > 100 µM | > 100 µM | > 100 µM | > 100 µM | > 100 µM | > 100 µM | > 100 µM | > 100 µM | > 100 µM | > 100 µM |  | 
2 | Cc1cc(N(CCC#N)CCC#N)ccc1/C=C1N=C(/C=C/c2ccccc2)N(c2ccc(S(N)(=O)=O)cc2)C\1=O | > 100 µM | > 100 µM | > 100 µM | > 100 µM | > 100 µM | > 100 µM | > 100 µM | > 100 µM | > 100 µM | > 100 µM |  | 
3 | COc1ccc(C(OC(=O)[C@H](O[Si](C)(C)C(C)(C)C)[C@@H](NC(=O)c2ccccc2)c2ccccc2)c2ccc(OC)cc2)cc1 | > 100 µM | > 100 µM | > 100 µM | > 100 µM | > 100 µM | > 100 µM | > 100 µM | > 100 µM | > 100 µM | > 100 µM |  | 
4 | Clc1cc2nc(C3CCCCO3)[nH]c2cc1Cl (configuration not stated) | > 91.9 µM | > 100 µM | > 100 µM | > 100 µM | > 100 µM | 18.5 µM | 23.9 µM | > 100 µM | > 100 µM | > 96.7 µM |  | 
5 | COc1ccc(C2CC(c3ccc(NS(=O)(=O)c4cc([N+](=O)[O-])ccc4C)cc3)=NN2S(=O)(=O)c2cc([N+](=O)[O-])ccc2C)cc1 (configuration not stated) | > 100 µM | > 100 µM | > 100 µM | > 100 µM | > 100 µM | 79.4 µM | > 100 µM | > 100 µM | > 100 µM | > 100 µM |  | 
6 | Fc1cc(C2=Nn3c(CNc4ccc(Cl)cc4)nnc3S/C2=C\c2ccc(-c3ccc(Cl)cc3)o2)c(Cl)cc1Cl | > 100 µM | 88.6 µM | 91.6 µM | > 100 µM | > 100 µM | > 100 µM | > 100 µM | 98.5 µM | > 100 µM | 57.6 µM |  | 
7 | O=[N+]([O-])c1cnc(N(CCO)CCO)s1 | > 100 µM | > 100 µM | > 100 µM | > 100 µM | > 100 µM | > 100 µM | > 100 µM | > 100 µM | > 100 µM | > 100 µM |  | 
8 | C=C[C@]1(C)CC(=O)C(C(C)C=O)[C@]12C(=O)Oc1cccc(C)c1C2=O (some centres not stated) | 30 µM | 31.2 µM | 35.9 µM | 53.2 µM | 35 µM | 18.2 µM | 29.6 µM | 30.6 µM | 25.2 µM | 28.3 µM |  | 
9 | O=C(/C=C\c1ccsc1)c1ccccc1 | 19.7 µM | 30.5 µM | 30.7 µM | > 70.6 µM | 34.1 µM | 4.34 µM | 27.9 µM | 32.4 µM | 12.3 µM | 15.3 µM |  | 
10 | CN1CN(c2ccccc2)C2(CCN(C3Nc4ccccc4O3)CC2)C1=O (configuration not stated) | 49.6 µM | 30.1 µM | 31.1 µM | > 100 µM | 50.3 µM | 39.2 µM | 31.7 µM | 48.2 µM | > 100 µM | 33.3 µM |  | 
11 | C[C@@H](Oc1ccc(Oc2cnc3ccc(Cl)cc3n2)cc1)C(=O)O | > 100 µM | > 100 µM | > 100 µM | > 100 µM | > 100 µM | > 100 µM | > 100 µM | > 100 µM | > 100 µM | > 100 µM | > 85.3 µM | 67.1 µM
12 | CC(C)C1CC(CO)(CNc2nc(N)nc(Cl)c2/C=N\O)C1 (configuration not stated) | 46.4 µM | 11.8 µM | > 100 µM | > 100 µM | 51.2 µM | 22.4 µM | 36.9 µM | 85.2 µM | 61.2 µM | 39.6 µM |  | 
13 | COC(=O)[C@H](C)NC(=O)C1(CNC(=O)[C@H](C)NC(=O)OC(C)(C)C)Cc2ccccc2-c2ccccc2C1 | 36.4 µM | 53.9 µM | > 100 µM | 54 µM | 61.5 µM | 20.8 µM | 49.6 µM | 41.1 µM | > 64.3 µM | 36.5 µM |  | 
14 | Cc1nn(C(=O)c2ccc(Cl)cc2)c2c1C(c1ccccc1O)SC(N)=N2 (configuration not stated) | > 10 µM | > 10 µM | > 10 µM | > 10 µM | > 10 µM | > 10 µM | > 10 µM | > 10 µM | > 10 µM | > 10 µM |  | 
15 | Cc1ccc(S(=O)(=O)NN=C2C(C)(C)CC2(C)C)cc1 | > 100 µM | > 100 µM | > 100 µM | > 100 µM | > 100 µM | > 100 µM | > 100 µM | > 100 µM | > 100 µM | > 100 µM |  | 
16 | O=S(=O)(Nc1nccs1)c1ccc([As](=O)(O)O)cc1 | > 100 µM | > 100 µM | > 100 µM | > 100 µM | > 100 µM | > 100 µM | > 100 µM | > 100 µM | > 100 µM | > 100 µM |  | 
17 | CC1OC(OC2C(OC(=O)[C@]34CCC(C)(C)CC3C3=CCC5[C@@]6(C)C[C@H](O)[C@H](OC7OC(COC8OC(CO)C(O)C(O)C8O)C(O)C(O)C7O)[C@@](C)(C(=O)O)C6CC[C@@]5(C)C3(C)CC4)OCC(O)C2O)C(O)C(O)C1OC1OCC(O)C(O)C1O (some centres not stated) | > 100 µM | > 100 µM | > 100 µM | > 100 µM | > 100 µM | > 100 µM | > 100 µM | > 100 µM | > 100 µM | > 100 µM |  | 
18 | CC(=O)Nc1c2sscc-2n(C)c1=O | 3.24 µM | 1.84 µM | 3.15 µM | 5.71 µM | 3.4 µM | 2.65 µM | 3.3 µM | 3 µM | 1.83 µM | 2.54 µM |  | 
19 | CCOC(=O)c1cc(C2=CCNC2=O)c(-c2cc(C)no2)[nH]1 | > 100 µM | > 100 µM | > 100 µM | > 100 µM | > 100 µM | 46.6 µM | > 100 µM | > 100 µM | > 100 µM | > 100 µM |  | 
